Measured values published in article PMC5862408, “CCR2 antagonism leads to marked reduction in proteinuria and glomerular injury in murine models of focal segmental glomerulosclerosis (FSGS)” (PLoS ONE, 2018).
“And” between values parts separate entries of the source, which are not always exact repeats. Identical values can stand only once.

Tests used:
Assay type in all cases: in vivo, mouse
[1] = system: Adriamycin challenged female Balb/c mice; assay: Adriamycin induced nephropathy model; conditions: for UAER: mean ± SEM
Method: Chemotaxis, calcium mobilization, and radio-ligand binding assays were conducted as previously described. Inhibition values (IC50) were calculated using non-linear regression with a one-site competition model (GraphPad Prism, GraphPad Software, La Jolla, CA). Urinary albumin was measured by ELISA (Bethyl Labs, Montgomery, TX). Urinary and serum creatinine was measured by LC-MS/MS at ChemoCentryx. The urinary albumin excretion rate (UAER) was calculated as micrograms per 24 h. Blood urea nitrogen (BUN) was measured by Antech Diagnostics (Morrisville, NC). Serum cystatin C was measured by ELISA (R&D Systems, Minneapolis, MN). The albumin to creatinine ratio (ACR) was calculated as micrograms of albumin per milligram of creatinine. These experiments were performed using female Balb/c mice (Jackson Laboratories, Bar Harbor, Maine). The mice were kept on standard chow and had free access to water. At age of 10 weeks, 7.5 mg/kg Adriamycin (Selleck Chemicals, Houston, TX) or saline (control) was injected via tail vein in isoflurane-anesthetized animals (day 0). CCX872 and/or vehicle were dosed subcutaneously once daily at 90 mg/kg formulated in 1% HPMC. The RAAS blocker Candesartan (AK Scientific, Union City, CA) and its vehicle were dosed orally once daily at 5 mg/kg, formulated in water. All dosing started 2 hours prior Adriamycin challenge. The mice were housed individually in metabolic cages for quantitative collection of urinary albumin and creatinine.  Fig 2 CCX872 improves renal function as assessed by UACR, serum creatinine and BUN in adriamycin challenged mice. Mice were challenged with Adriamycin as described in Methods. Test compound treatment was begun one hour prior to the Adriamycin challenge. Urine was collected for measurement of UAER (S3 Table) and creatinine at the indicated time points, and UACR was calculated as described in Methods. Serum creatinine and BUN were measured at time of terminal bleed after two weeks of treatment. Error bars represent standard error of the mean. N = 10/group at week 1, and N = 8 at week 2. p values were calculated on each treated group to vehicle treated animals using student’s t-test (GraphPad Prism).

[2] = system: 5/6 nephrectomized 129X1/SvJ mice; assay: 5/6 nephrectomy model (CCX872, RAAS blocker, combination); conditions: for BUN / Serum Creatinine / Serum Cystatin C: terminal bleed; for UACR: CCX872 90 mg/kg s.c., RAAS blocker 5 mg/kg orally, once daily
Method: (§1) Chemotaxis, calcium mobilization, and radio-ligand binding assays were conducted as previously described. Inhibition values (IC50) were calculated using non-linear regression with a one-site competition model (GraphPad Prism, GraphPad Software, La Jolla, CA). Urinary albumin was measured by ELISA (Bethyl Labs, Montgomery, TX). Urinary and serum creatinine was measured by LC-MS/MS at ChemoCentryx. The urinary albumin excretion rate (UAER) was calculated as micrograms per 24 h. Blood urea nitrogen (BUN) was measured by Antech Diagnostics (Morrisville, NC). Serum cystatin C was measured by ELISA (R&D Systems, Minneapolis, MN). The albumin to creatinine ratio (ACR) was calculated as micrograms of albumin per milligram of creatinine.
5/6 nephrectomy mice on the 129X1/SvJ background were obtained from Jackson Laboratories, and were received at ChemoCentryx after the surgery was performed at JAX. Under isoflurane anesthesia, two-thirds of the left kidney mass was removed at 5–6 weeks of age. Then, after 7 to 10 days, a right unilateral nephrectomy was performed. The mice were fed a standard chow and had free access to water. Three weeks after the 5/6 nephrectomy, the mice were grouped to ensure a similar starting UAER in each treatment group. CCX872 or its vehicle were dosed subcutaneously once daily formulated in 1% HPMC. The RAAS blocker Candesartan (AK Scientific, Union City, CA) and its vehicle were dosed orally once daily at 5 mg/kg formulated in water. Sparsentan, the dual-acting receptor antagonist for endothelin (A type) and angiotensin II receptors (Type 1) was synthesized at ChemoCentryx and was dosed orally twice daily at 90 mg/kg formulated in 1% HPMC. The mice were housed individually in metabolic cages for quantitative collection of urinary albumin and creatinine. […]
Fig 3 CCX872 improves renal function as assessed by UACR, serum creatinine, BUN and cystatin C in 5/6 nephrectomized mice. Mice underwent a 5/6 nephrectomy as described in Methods. Three weeks post-surgery the mice were randomized to the groups indicated above for the study period of 4 weeks. Urine was collected for measurement of albumin and creatinine at the indicated time points, and UACR was calculated as described in Methods. Serum creatinine, BUN and Cystatin C were measured at time of terminal bleed after four weeks of treatment. Error bars represent standard error of the mean. N = 10/group, and N = 6 at week 3. p values were calculated between each drug-treated group and vehicle treated animals (asterisk), or between CCX872/RAAS blocker combination and RAAS blocker alone (octothorpe) using student’s t-test (GraphPad Prism).

[3] = system: 5/6 nephrectomized 129X1/SvJ mice; assay: 5/6 nephrectomy model (comparison with ET1/AT1 dual inhibitor)
Method: as §1
5/6 nephrectomy mice on the 129X1/SvJ background were obtained from Jackson Laboratories, and were received at ChemoCentryx after the surgery was performed at JAX. Under isoflurane anesthesia, two-thirds of the left kidney mass was removed at 5–6 weeks of age. Then, after 7 to 10 days, a right unilateral nephrectomy was performed. The mice were fed a standard chow and had free access to water. Three weeks after the 5/6 nephrectomy, the mice were grouped to ensure a similar starting UAER in each treatment group. CCX872 or its vehicle were dosed subcutaneously once daily formulated in 1% HPMC. The RAAS blocker Candesartan (AK Scientific, Union City, CA) and its vehicle were dosed orally once daily at 5 mg/kg formulated in water. Sparsentan, the dual-acting receptor antagonist for endothelin (A type) and angiotensin II receptors (Type 1) was synthesized at ChemoCentryx and was dosed orally twice daily at 90 mg/kg formulated in 1% HPMC. The mice were housed individually in metabolic cages for quantitative collection of urinary albumin and creatinine.
Fig 4 Relative efficacy of CCR2, RAAS, and endothelin receptor blockade in the 5/6 nephrectomy model as assessed by UACR (mg/mg). Mice underwent a 5/6 nephrectomy as described in Methods. Three weeks post-surgery the mice were randomized to the indicated groups for the study period of 4 weeks. Urine was collected for measurement of UACR at the indicated time points, as described in Methods. Error bars represent standard error of the mean. N = 10/group at week 1, and N = 6 at week 4. p values were calculated between each drug-treated group and vehicle treated animals (asterisk), or between the CCX872/RAAS blocker combination and RAAS blocker alone (octothorpe) using student’s t-test (GraphPad Prism).

[4] = system: Adriamycin challenged female Balb/c mice; assay: Adriamycin induced nephropathy model; conditions: individual mice
[5] = terminal bleed, individual mice
[6] = four-week time point, mean ± SEM
[7] = individual mice, listed as RAASi

For `CCOc1nc2cccc(C(=O)O)c2n1Cc1ccc(-c2ccccc2-c2nnn[nH]2)cc1` [RAAS Blocker, Candesartan], the UAER ([1]; Week 1) was 39.46 ± 14.14, p=0.16 mg/day, the UAER ([1]; Week 2) was 66.87 ± 23.99, p=0.52 mg/day and the “BUN” value [1, 5] was 100 mg/dL and 80 mg/dL and 65 mg/dL and 70 mg/dL and 85 mg/dL and 125 mg/dL and 75 mg/dL. For the same compound, the “Serum Creatinine” value [1, 5] was 0.927 µg/mL and 1.08 µg/mL and 1.05 µg/mL and 1.06 µg/mL and 0.956 µg/mL and 1.21 µg/mL and 0.91 µg/mL and 1.09 µg/mL and 1.14 µg/mL and 1.35 µg/mL, the UAER ([2]; Week 1, mean ± SEM) was 8.27± 1.89, p=0.03 mg/day and the UAER ([2]; Week 2, mean ± SEM) was 3.62 ± 1.63, p=0.03 mg/day. For the same compound, the UAER ([2]; Week 3, mean ± SEM) was 3.32 ± 0.76, p<0.0001 mg/day, the BUN [2, 6] was 247.0 ± 16.42 mg/dL and the Serum Creatinine [2, 6] was 2.78 ± 0.27 µg/mL. The “UAER (mg/day) at Week 1” value ([2]; individual mice) was 2.15 mg/day and 4.699 mg/day and 15.5467 mg/day and 16.4212 mg/day and 15.0186 mg/day and 0.6806 mg/day and 9.638 mg/day and 3.148 mg/day and 4.462 mg/day and 10.9401 mg/day, the “UAER (mg/day) at Week 2” value ([2]; individual mice) was 0.7796 mg/day and 9.402 mg/day and 12.4793 mg/day and 1.127 mg/day and 0.5679 mg/day and 1.491 mg/day and 1.407 mg/day and 1.719 mg/day and the “UAER (mg/day) at Week 3” value ([2]; individual mice) was 5.801 mg/day and 4.3025 mg/day and 1.247 mg/day and 2.019 mg/day and 1.844 mg/day and 4.699 mg/day. For the same compound, the “UACR (mg/mg) at Week 1” value [2, 7] was 5.748 mg/mg and 5.722 mg/mg and 28.9118 mg/mg and 21.9395 mg/mg and 21.4656 mg/mg and 1.415 mg/mg and 15.8208 mg/mg and 5.683 mg/mg and 7.266 mg/mg and 18.781 mg/mg, the “UACR (mg/mg) at Week 3” value [2, 7] was 7.871 mg/mg and 8.029 mg/mg and 3.677 mg/mg and 3.863 mg/mg and 2.8993 mg/mg and 7.734 mg/mg and the “Serum Cystatin C” value ([2]; individual mice) was 0.9323 µg/mL and 2.095 µg/mL and 2.201 µg/mL and 1.815 µg/mL and 2.053 µg/mL and 1.1273 µg/mL and 1.429 µg/mL and 1.517 µg/mL and 1.562 µg/mL and 2.118 µg/mL. The “BUN” value [2, 7] was 245 mg/dL and 215 mg/dL and 265 mg/dL and 205 mg/dL and 330 mg/dL and 255 mg/dL and 170 mg/dL and 210 mg/dL, the “Serum Creatinine” value [2, 7] was 2.46 µg/mL and 1.88 µg/mL and 2.93 µg/mL and 2.22 µg/mL and 2.77 µg/mL and 2.85 µg/mL and 2.01 µg/mL and 5.03 µg/mL and 2.87 µg/mL and the “Serum Cystatin C” value ([2]; mean ± SEM) was 1.68 ± 0.14 µg/mL. The UACR ([2]; week 1, mean ± SEM) was 13.28 ± 2.928 mg/mg, the UACR ([2]; week 3, mean ± SEM) was 5.679 ± 0.99 mg/mg and the UAER ([3]; Week 1, mean ± SEM) was 9.38 ± 7.70, p=0.27 mg/day. The UAER ([3]; Week 2, mean ± SEM) was 7.72 ± 6.37, p=0.06 mg/day, the UAER ([3]; Week 4, mean ± SEM) was 1.74 ± 2.49, p=0.02 mg/day and the “UACR (mg/mg) at Week 1” value ([3]; individual mice) was 0.2531 mg/mg and 1.465 mg/mg and 2.285 mg/mg and 73.9074 mg/mg and 1.319 mg/mg and 7.089 mg/mg and 0.4551 mg/mg and 1.07 mg/mg. For the same compound, the “UACR (mg/mg) at Week 4” value ([3]; individual mice) was 0.751 mg/mg and 2.804 mg/mg and 0.2303 mg/mg and 0.9337 mg/mg and 0.4088 mg/mg and 0.9456 mg/mg, the “UAER (mg/day) at Week 1” value ([3]; individual mice) was 0.1519 mg/day and 0.9615 mg/day and 2.137 mg/day and 63.0549 mg/day and 1.2792 mg/day and 6.0897 mg/day and 0.4778 mg/day and 0.9119 mg/day and the “UAER (mg/day) at Week 2” value ([3]; individual mice) was 0.4333 mg/day and 5.515 mg/day and 1.464 mg/day and 44.8051 mg/day and 0.7469 mg/day and 7.145 mg/day and 0.2974 mg/day and 1.3574 mg/day. The “UAER (mg/day) at Week 4” value ([3]; individual mice) was 1.13 mg/day and 3.156 mg/day and 0.298 mg/day and 1.221 mg/day and 0.2117 mg/day and 1.028 mg/day, the UACR ([3]; week one, mean ± SEM, CCX872 90 mg/kg s.c. once daily, RAAS blocker 5 mg/kg orally once daily, Sparsentan 90 mg/kg orally twice daily) was 10.98 ± 9.02 mg/mg and the “UACR (mg/mg) at Week 1” value [4] was 20.0842 mg/mg and 22.2965 mg/mg and 25.3406 mg/mg and 40.1693 mg/mg and 41.555 mg/mg and 302.958 mg/mg and 55.6444 mg/mg and 187.49 mg/mg and 117.091 mg/mg and 7.322 mg/mg. The “UACR (mg/mg) at Week 2” value [4] was 56.294 mg/mg and 76.9257 mg/mg and 96.611 mg/mg and 232.005 mg/mg and 248.91 mg/mg and 18.6549 mg/mg and 102.568 mg/mg and 35.7503 mg/mg, the “UAER (mg/day) at Week 1” value [4] was 10.1862 mg/day and 10.9954 mg/day and 11.0332 mg/day and 14.9575 mg/day and 18.3446 mg/day and 113.025 mg/day and 29.5364 mg/day and 126.741 mg/day and 54.0627 mg/day and 5.677 mg/day and the “UAER (mg/day) at Week 2” value [4] was 28.1393 mg/day and 36.5424 mg/day and 35.6435 mg/day and 176.989 mg/day and 173.035 mg/day and 14.0491 mg/day and 53.4766 mg/day and 17.1116 mg/day.
